Source: patent publication US20230157996A1, “SMALL-MOLECULE INHIBITOR TARGETING EB VIRUS NUCLEAR ANTIGEN PROTEIN, PREPARATION METHOD AND USE THEREOF” (priority 2020, published 2023)

system: C666-1 cells; assay: C666-1 cell viability single concentration (50 μM) inhibition rate (Resazurin); assay type: cell-based; conditions: 50 μM compound, 72 hours, C666-1 cells
Outline: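 EBV-positive C666-1 cells (5×10^3/well), pre-cultured 24 h, were exposed to compound at 50 μmol/L final for 72 h at 37° C, 5% CO2, in duplicate. Viability by resazurin (3 h, ex 560/em 590 nm); inhibition rate computed relative to DMSO control and medium-only blank.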

With COC(=O)c1cccc(C#CN(Cc2ccc(F)cc2)S(=O)(=O)c2ccc(C)cc2)c1-n1cccc1 [Example 344] the “C666-1 cell viability single concentration (50 μM) inhibition rate, Ratio* (Inh %)” value was “+ (*Inh %: <10% +)”.

same assay, conditions: Homo sapiens, C6661, 72 h, 50 μM compound, 72 hours, C666-1 cells; read-out: C666-1 cell viability single concentration (50 μM) inhibition rate, Ratio* (Inh %)

First: COC(=O)c1cccc(N2CC(Oc3ccc(O)cc3)C2)c1-n1cccc1 [Example 187, Methyl 3-(3-(4-hydroxylphenoxy)azetidin-1-yl)-2-(1H-pyrrol-1-yl)benzoate]
Second: COC(=O)c1cccc(N2CC(Oc3ccc(C(C)O)cc3)C2)c1-n1cccc1 (stereo not shown) [Compound 89, Methyl 3-(3-(4-(1-hydroxyethyl)phenoxy)azetidin-1-yl)-2-(1H-pyrrol-1-yl)benzoate]
The inhibition at 50 µM of the first is lower: under 10% for the first, over 50% for the second.

First: COC(=O)c1cccc(N2CC3(CN(c4ccccc4)C3)C2)c1N [Compound 9, Methyl 2-amino-3-(6-phenyl-2,6-diazaspiro[3.3]heptan-2-yl)benzoate]
Second: CC(=O)Nc1cccc(N2CC3(C2)CN(c2cccc(C(=O)O)c2N)C3)c1 [Compound 30, 3-(6-(3-acetylaminophenyl)-2,6-diazaspiro[3.3]heptan-2-yl)-2-aminobenzoic acid]
The inhibition at 50 µM of the first is higher: 10 to 30% for the first, under 10% for the second.

COC(=O)c1cccc(N2CC(Oc3ccc(COc4cncnc4)cc3)C2)c1-n1cccc1 [Example 360, Methyl 3-(3-(4-((pyrimidin-5-yl-oxy)methyl)phenoxy)azetidin-1-yl)-2-(1H-pyrrol-1-yl)benzoate] and COC(=O)c1cccc(N2CC(Oc3ccc(CNc4ccccc4)cc3)C2)c1-n1cccc1 [Example 362] cannot be ordered by inhibition at 50 µM: under 10% for the first, under 10% for the second.

COC(=O)c1cccc(N2CC(Oc3ccc(Cl)nc3)C2)c1-n1cccc1 [Compound 85, Methyl 3-(3-((6-chloropyridin-3-yl)oxy)azetidin-1-yl)-2-(1H-pyrrol-1-yl)benzoate] and COC(=O)c1cccc(N2CC(Oc3ccc(C(C)=O)cc3)C2)c1-n1cccc1 [Compound 87, Methyl 3-(3-(4-acetylphenoxy)azetidin-1-yl)-2-(1H-pyrrol-1-yl)benzoate] cannot be ordered by inhibition at 50 µM: over 50% for the first, over 50% for the second.

First: COC(=O)c1cccc(N2CC(NC(=S)Nc3ccc(Cl)cc3)C2)c1-n1cccc1 [Example 174, Methyl 3-(3-(3-(4-chlorophenyl)thioureido)azetidin-1-yl)-2-(1H-pyrrol-1-yl)benzoate]
Second: COC(=O)c1cccc(N2CC(Oc3ccc(NC(=S)Nc4ccc(Cl)cc4)cc3)C2)c1-n1cccc1 [Example 226, Methyl 3-(3-(4-(3-(4-chlorophenyl)thioureido)phenoxy)azetidin-1-yl)-2-(1H-pyrrol-1-yl)benzoate]
The inhibition at 50 µM of the first is higher: over 50% for the first, 10 to 30% for the second.

First: Cc1ccc(S(=O)(=O)N(C)C#Cc2cccc(C(=O)O)c2-n2cccc2)cc1 [Example 384]
Second: COC(=O)c1cccc(C#CN(Cc2ccncc2)S(=O)(=O)c2ccc(C)cc2)c1-n1cccc1 [Example 389]
The inhibition at 50 µM of the first is lower: under 10% for the first, over 50% for the second.

O=C(O)c1cccc(N2CC(Oc3ccc(CO)cc3)C2)c1-c1cccc(C(F)(F)F)c1 [Compound 60, 3′-(trifluoromethyl)-6-(3-(4-(hydroxymethyl)phenoxy)azetidin-1-yl)-[1,1′-biphenyl]-2-formic acid] and CCOc1ccc(OC2CN(c3cccc(C(=O)O)c3-n3cccc3)C2)cc1 [Example 100, 3-(3-(4-ethoxyphenoxy)azetidin-1-yl)-2-(1H-pyrrol-1-yl)benzoic acid] cannot be ordered by inhibition at 50 µM: under 10% for the first, under 10% for the second.

COC(=O)c1cccc(N2CC(Oc3ccc(CO)cc3C)C2)c1-n1cccc1 [Example 299, Methyl 3-(3-(4-(hydroxymethyl)-2-methylphenoxy)azetidin-1-yl)-2-(1H-pyrrol-1-yl)benzoate] and CCCNC(=S)Nc1ccc(OC2CN(c3cccc(C(=O)OC)c3-n3cccc3)C2)cc1 [Example 117, Methyl 3-(3-(4-(3-propylthioureido)phenoxy)azetidin-1-yl)-2-(1H-pyrrol-1-yl)benzoate] cannot be ordered by inhibition at 50 µM: over 50% for the first, over 50% for the second.

CC(=O)OC(c1ccc(C(F)(F)F)nc1)C12CC(c3cccc(C(=O)O)c3)(C1)C2 (stereo not shown) [Compound 2, 3-(3-(acetoxyl(6-(trifluoromethyl)pyridin-3-yl)methyl)bicyclo[1.1.1]pentan-1-yl)benzoic acid] and COC(=O)c1cccc(N2CC(Oc3cccc(C(=O)O)c3)C2)c1N [Example 282, Methyl 2-amino-3-(3-(3-carboxylphenoxy)azetidin-1-yl)benzoate] cannot be ordered by inhibition at 50 µM: under 10% for the first, under 10% for the second.

Compared with COC(=O)c1cccc(N2CC3(CN(c4cccc(NS(C)(=O)=O)c4)C3)C2)c1[N+](=O)[O-] [Compound 27, Methyl 3-(6-(3-(methylsulfonamido)phenyl)-2,6-diazaspiro[3.3]heptan-2-yl)-2-nitrobenzoate], COC(=O)c1cccc(N2CC3(CN(c4ccccc4[N+](=O)[O-])C3)C2)c1-n1cccc1 [Compound 21, Methyl 3-(6-(2-nitrophenyl)-2,6-diazaspiro[3.3]heptan-2-yl)-2-(1H-pyrrol-1-yl)benzoate] is higher in inhibition at 50 µM: under 10% for the first, 10 to 30% for the second.

COC(=O)c1cccc(N2CC(Oc3ccc(OC4CCCCO4)cc3)C2)c1-n1cccc1 (stereo not shown) [Example 308, Methyl 3-(3-(4-((tetrahydro-2H-pyran-2-yl)oxy)phenoxy)azetidin-1-yl)-2-(1H-pyrrol-1-yl)benzoate] and O=C(O)c1cccc(N2CC(Oc3ccc(COC4CCOCC4)cc3)C2)c1-n1cccc1 [Example 394, 2-(1H-pyrrol-1-yl)-3-(3-(4-(((tetrahydro-2H-pyran-4-yl)oxy)methyl)phenoxy)azetidin-1-yl)benzoic acid] cannot be ordered by inhibition at 50 µM: under 10% for the first, under 10% for the second.

Compared with COC(=O)c1cccc(N2CC(Oc3ccc(Oc4ccccc4)c(F)c3)C2)c1-n1cccc1 [Example 200, Methyl 3-(3-(3-fluoro-4-phenoxyphenoxy)azetidin-1-yl)-2-(1H-pyrrol-1-yl)benzoate], COC(=O)c1cccc(N2CC(Oc3ccc(NC(=S)Nc4cccc(Cl)c4)cc3)C2)c1-n1cccc1 [Example 227, Methyl 3-(3-(4-(3-(3-chlorophenyl)thioureido)phenoxy)azetidin-1-yl)-2-(1H-pyrrol-1-yl)benzoate] is higher in inhibition at 50 µM: under 10% for the first, 10 to 30% for the second.

First: O=C(NCc1cccs1)c1cccc(N2CC(Oc3ccc(CO)cc3)C2)c1-n1cccc1 [Example 231, N-(thiophen-2-yl-methyl)-3-(3-(4-(hydroxymethyl)phenoxy)azetidin-1-yl)-2-(1H-pyrrol-1-yl)benzamide]
Second: O=C(O)c1cccc(N2CC(Oc3ccc(CNc4ccccc4)cc3)C2)c1-n1cccc1 [Example 363]
The inhibition at 50 µM of the first is higher: 10 to 30% for the first, under 10% for the second.

Cc1ccc([S+]([O-])C2CN(c3cccc(C(=O)O)c3-n3cccc3)C2)cc1 (stereo not shown) [Example 193] and Cc1ccc(S(=O)(=O)NC2CN(c3cccc(C(=O)O)c3-n3cccc3)C2)cc1 [Example 177, 3-(3-((4-methylphenyl)sulfonamido)azetidin-1-yl)-2-(1H-pyrrol-1-yl)benzoic acid] cannot be ordered by inhibition at 50 µM: under 10% for the first, under 10% for the second.

O=C(NC1CCCCC1)OC1CN(c2cccc(C(=O)O)c2-n2cccc2)C1 [Example 150, 3-(3-((cyclohexylcarbamoyl)oxy)azetidin-1-yl)-2-(1H-pyrrol-1-yl)benzoic acid] and O=C(NC1CC1)NC1CN(c2cccc(C(=O)O)c2-n2cccc2)C1 [Example 169, 3-(3-(3-cyclopropylureido)azetidin-1-yl)-2-(1H-pyrrol-1-yl)benzoic acid] cannot be ordered by inhibition at 50 µM: under 10% for the first, under 10% for the second.

O=C(O)c1cccc(N2CC(OC(=S)Nc3ccc(Cl)cc3)C2)c1-n1cccc1 [Example 148, 3-(3-(((4-chlorophenyl)thiocarbamoyl)oxy)azetidin-1-yl)-2-(1H-pyrrol-1-yl)benzoic acid] and O=C(Nc1ccc(Cl)cc1)OCc1ccc(OC2CN(c3cccc(C(=O)O)c3-n3cccc3)C2)cc1 [Example 237] cannot be ordered by inhibition at 50 µM: under 10% for the first, under 10% for the second.

Compared with CCNC(=S)NC1CN(c2cccc(C(=O)OC)c2-n2cccc2)C1 [Example 172, Methyl 3-(3-(3-ethylthioureido)azetidin-1-yl)-2-(1H-pyrrol-1-yl)benzoate], COC(=O)c1cccc(N2CC(NC(=O)c3ccccc3[N+](=O)[O-])C2)c1-n1cccc1 [Example 180, Methyl 3-(3-(2-nitrobenzamido)azetidin-1-yl)-2-(1H-pyrrol-1-yl)benzoate] is higher in inhibition at 50 µM: 10 to 30% for the first, 30 to 50% for the second.

CCOCc1ccc(OC2CN(c3cccc(C(=O)OCC)c3-n3cccc3)C2)cc1 [Example 232, Ethyl 3-(3-(4-(ethoxymethyl)phenoxy)azetidin-1-yl)-2-(1H-pyrrol-1-yl)benzoate] and O=C(O)c1cccc(N2CC(Oc3ccc4cc[nH]c4c3)C2)c1-n1cccc1 [Example 104, 3-(3-((1H-indol-6-yl)oxy)azetidin-1-yl)-2-(1H-pyrrol-1-yl)benzoic acid] cannot be ordered by inhibition at 50 µM: under 10% for the first, under 10% for the second.

Nc1ccc(N2CC3(C2)CN(c2cccc(C(=O)O)c2N)C3)cc1 [Compound 14, 2-amino-3-(6-(4-aminophenyl)-2,6-diazaspiro[3.3]heptan-2-yl)benzoic acid] and Nc1c(C(=O)O)cccc1C1CC1c1ccccc1 (stereo not shown) [Example 392, 2-amino-3-(2-phenylcyclopropyl)benzoic acid] cannot be ordered by inhibition at 50 µM: under 10% for the first, under 10% for the second.

Compared with COC(=O)c1cccc(C#CN(Cc2ccc(OC)cc2)S(=O)(=O)c2ccc(C)cc2)c1-n1cccc1 [Example 385], COC(=O)c1cccc(C#CN(Cc2cccnc2)S(=O)(=O)c2ccc(C)cc2)c1-n1cccc1 [Example 387] is higher in inhibition at 50 µM: 10 to 30% for the first, over 50% for the second.

same assay, conditions: Homo sapiens, C6661, 72 h, read-out: C666-1 cell viability single concentration (50 μM) inhibition rate, Ratio* (Inh %)

First: Cc1ccc(S(=O)(=O)N(C#Cc2cccc(C(=O)O)c2-n2cccc2)Cc2cccs2)cc1 [Example 329, Lithium 3-(((4-methyl-N-(thiophen-2-yl-methyl)phenyl)sulfonamido)ethynyl)-2-(1H-pyrrol-1-yl)benzoate]
Second: Cc1ccc(CN(C#Cc2cccc(C(=O)O)c2-n2cccc2)S(=O)(=O)c2ccc(C)cc2)cc1 [Example 343]
The inhibition at 50 µM of the first is higher: over 50% for the first, under 10% for the second.
